Experiments:
barnyardgrass [1] = assay: Test Example 1: foliage treatment, upland pot test; type: in vivo, Echinochloa crus-galli L.; conditions: active ingredient 500 g/ha, observed 18th to 23rd day, 0 = non-treated, 100 = complete kill
Outline: (§1)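 Crops and weeds were sown in upland soil pots and sprayed post-emergence at set leaf stages (soybean 0.1–0.4, wheat 1.3–2.4, rice 1.2–2.6, barnyardgrass 1.3–2.8). Formulated compound was applied in 500 L/ha water with 0.1% spreader. Growth control (0–100%) was rated visually 18–23 days later.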

crabgrass [2] = assay: Test Example 1: foliage treatment, upland pot test; type: in vivo, Digitaria sanguinalis L.; conditions: active ingredient 500 g/ha, observed 18th to 23rd day, 0 = non-treated, 100 = complete kill
green foxtail [3] = assay: Test Example 1: foliage treatment, upland pot test; type: in vivo, Setaria viridis L.; conditions: active ingredient 500 g/ha, observed 18th to 23rd day, 0 = non-treated, 100 = complete kill
redroot pigweed [4] = assay: Test Example 1: foliage treatment, upland pot test; type: in vivo, Amaranthus retroflexus L.; conditions: active ingredient 500 g/ha, observed 18th to 23rd day, 0 = non-treated, 100 = complete kill
prickly sida [5] = assay: Test Example 1: foliage treatment, upland pot test; type: in vivo, Sida spinosa L.; conditions: active ingredient 500 g/ha, observed 18th to 23rd day, 0 = non-treated, 100 = complete kill
velvetleaf [6] = assay: Test Example 1: foliage treatment, upland pot test; type: in vivo, Abutilon theophrasti MEDIC.; conditions: active ingredient 500 g/ha, observed 18th to 23rd day, 0 = non-treated, 100 = complete kill
rice [7] = assay: Test Example 1: foliage treatment, upland pot test; type: in vivo, Oryza sativa L.; conditions: crop, active ingredient 500 g/ha, observed 18th to 23rd day, 0 = non-treated, 100 = complete kill
Outline: as §1

corn [8] = assay: Test Example 1: foliage treatment, upland pot test; type: in vivo, Zea mays L.; conditions: crop, active ingredient 500 g/ha, observed 18th to 23rd day, 0 = non-treated, 100 = complete kill
Outline: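 In this upland pot foliage test, corn plants at 2.1 to 3.2 leaf stages were sprayed by a small size sprayer. The spray was a conventionally formulated wettable powder or emulsifiable concentrate weighed to a set active ingredient amount, diluted in water at 500 L/ha, plus 0.1% (v/v) agricultural spreader. Visual assessment on days 18 to 23 gave growth controlling degree (%), where 0 equals untreated and 100 means complete kill.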

soybean [9] = assay: Test Example 1: foliage treatment, upland pot test; type: in vivo, Glycine max Merr.; conditions: crop, active ingredient 500 g/ha, observed 18th to 23rd day, 0 = non-treated, 100 = complete kill
Outline: as §1

barnyardgrass [10] = assay: Test Example 2: soil surface treatment, upland pot test; type: in vivo, Echinochloa crus-galli L.; conditions: active ingredient 500 g/ha
Outline: (§2)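 Sowing, then next-day soil-surface spray of formulated test compound (fixed a.i. amount, 1,500 L/ha spray volume); visual evaluation of growth inhibition, 0–100%, three to four weeks (days 20–28) after application.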

crabgrass [11] = assay: as above; type: in vivo, Digitaria sanguinalis L.; conditions: active ingredient 500 g/ha
Outline: as §2

green foxtail [12] = assay: as above; type: in vivo, Setaria viridis L.; conditions: active ingredient 500 g/ha
Outline: as §2

redroot pigweed [13] = assay: as above; type: in vivo, Amaranthus retroflexus L.; conditions: active ingredient 500 g/ha
Outline: as §2

prickly sida [14] = assay: as above; type: in vivo, Sida spinosa L.; conditions: active ingredient 500 g/ha
Outline: as §2

velvetleaf [15] = assay: as above; type: in vivo, Abutilon theophrasti MEDIC.; conditions: active ingredient 500 g/ha
Outline: as §2

rice [16] = assay: as above; type: in vivo, Oryza sativa L.; conditions: active ingredient 500 g/ha
Outline: as §2

corn [17] = assay: as above; type: in vivo, Zea mays L.; conditions: active ingredient 500 g/ha
Outline: as §2

soybean [18] = assay: as above; type: in vivo, Glycine max Merr.; conditions: active ingredient 500 g/ha
Outline: as §2

barnyardgrass [19] = assay: Test Example 3: paddy pot test, application under submerged conditions; type: in vivo, Echinochloa crus-galli L.; conditions: submerged application at 0.5 leaf stage, visually observed 14 days after application, 0 = non-treated, 100 = complete kill
Outline: (§3)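 Visual growth-control rating (0 = untreated, 100 = complete kill) 14 days after treatment. The formulated compound, as a diluted wettable powder or emulsifiable concentrate, went into 3–4 cm flood water at a predetermined active-ingredient dose once the weeds reached 0.5 leaf stage (wapato: primary leaf stage).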

japanese bulrush = assay: as above; type: in vivo, Scirpus juncoides; conditions: submerged application at 0.5 leaf stage, visually observed 14 days after application, 0 = non-treated, 100 = complete kill
Outline: as §3

japanese ribbon wapato = assay: as above; type: in vivo, Sagittaria pygniaea; conditions: submerged application at primary leaf stage, visually observed 14 days after application, 0 = non-treated, 100 = complete kill
Outline: as §3

rice (var. Nihonbare) = assay: Test Example 3: paddy pot test, transplanted rice; type: in vivo, Oryza sativa L.; conditions: applied 4th day after transplantation, visually observed 21st day after application, 0 = non-treated, 100 = complete kill
Outline: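 Rice (var. Nihonbare) at 2 leaf stage transplanted 3 cm deep into puddled paddy soil under 3–4 cm flooding; on day 4 after transplanting, diluted wettable powder or emulsifiable concentrate applied by pipette under submerged conditions at a set active-ingredient dose. Growth scored visually 21 days after application, 0 (untreated) to 100 (complete kill) %.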

wheat = assay: Test Example 2: soil surface treatment, upland pot test; type: in vivo, Triticum spp.; conditions: active ingredient 500 g/ha, observed 20th to 28th day
Text: Upland field soil was put into a 1/170,000 ha pot, and seed of various plants (barnyardgrass, crabgrass, green foxtail, redroot pigweed, prickly sida, velvetleaf, rice, wheat, corn, soybean) were sown. On the 1st day after the sowing, a wettable powder or emulsifiable concentrate having the compound of the present invention formulated in accordance with a usual formulation method, was weighed so that the active ingredient would be a predetermined amount, and diluted with water in an amount of 1,500 L/ha. The herbicide thus adjusted was applied by a small size sprayer for soil surface treatment. On the 20th to 28th days after the application of the herbicide, the growth of the respective plants was visually observed, and the herbicidal effects were evaluated by the growth controlling degrees (%) ranging from 0 (equivalent to the non-treated plot) to 100 (complete kill), whereby the results shown in Table 4, were obtained.

[20] = observed day 21, 0 = non-treated, 100 = complete kill

| SMILES | Growth controlling degree (%) Barnyardgrass (barnyardgrass [1]) | Growth controlling degree (%) Crabgrass (crabgrass [2]) | Growth controlling degree (%) Green foxtail (green foxtail [3]) | Growth controlling degree (%) Redroot pigweed (redroot pigweed [4]) | Growth controlling degree (%) Prickly sida (prickly sida [5]) | Growth controlling degree (%) Velvetleaf (velvetleaf [6]) | Growth controlling degree (%) Rice (rice [7]) | Growth controlling degree (%) Corn (corn [8]) | Growth controlling degree (%) Soybean (soybean [9]) | Growth controlling degree (%) Barnyardgrass (barnyardgrass [10]; observed 20th to 28th day) | Growth controlling degree (%) Crabgrass (crabgrass [11]; observed 20th to 28th day) | Growth controlling degree (%) Green foxtail (green foxtail [12]; observed 20th to 28th day) | Growth controlling degree (%) Redroot pigweed (redroot pigweed [13]; observed 20th to 28th day) | Growth controlling degree (%) Prickly sida (prickly sida [14]; observed 20th to 28th day) | Growth controlling degree (%) Velvetleaf (velvetleaf [15]; observed 20th to 28th day) | Growth controlling degree (%) Rice (rice [16]; observed 20th to 28th day) | Growth controlling degree (%) Corn (corn [17]; observed 20th to 28th day) | Growth controlling degree (%) Soyabean (soybean [18]; observed 20th to 28th day) | other results |
| --- | --- | --- | --- | --- | --- | --- | --- | --- | --- | --- | --- | --- | --- | --- | --- | --- | --- | --- | --- |
| CCC(C)C(c1cnccc1C(F)(F)F)N(C)C(=O)Cc1ccccc1 (stereo not drawn) [I-260] | 80% | 80% | 50% | 40% | 95% | 90% | 40% | 80% | 90% | – | – | – | – | – | – | – | – | – | Growth controlling degree (%) Barnyardgrass (barnyardgrass [10]; [20]): 80%; Growth controlling degree (%) Crabgrass (crabgrass [11]; [20]): 98%; Growth controlling degree (%) Green foxtail (green foxtail [12]; [20]): 100%; Growth controlling degree (%) Redroot pigweed (redroot pigweed [13]; [20]): 70%; Growth controlling degree (%) Prickly sida (prickly sida [14]; [20]): 95%; Growth controlling degree (%) Velvetleaf (velvetleaf [15]; [20]): 70%; Growth controlling degree (%) Rice (rice [16]; [20]): 10%; Growth controlling degree (%) Corn (corn [17]; [20]): 30%; Growth controlling degree (%) Soyabean (soybean [18]; [20]): 20%; Growth controlling degree (%) Barnyardgrass (barnyardgrass [19]; active ingredient 250 g/ha): 100%; Growth controlling degree (%) Japanese bulrush (japanese bulrush; active ingredient 250 g/ha): 98%; Growth controlling degree (%) Japanese ribbon wapato (japanese ribbon wapato; active ingredient 250 g/ha): 60%; Growth controlling degree (%) Rice (rice (var. Nihonbare); active ingredient 250 g/ha): 10% |
| CC(C)C(c1cnccc1Cl)N(C)C(=O)Cc1cccc(F)c1 (stereo not drawn) [I-65] | 10% | 60% | 10% | 90% | 80% | 70% | 20% | 0% | 20% | 60% | 90% | 60% | 50% | 10% | 10% | 20% | 30% | 0% | Growth controlling degree (%) Barnyardgrass (barnyardgrass [19]; active ingredient 125 g/ha): 98%; Growth controlling degree (%) Japanese bulrush (japanese bulrush; active ingredient 125 g/ha): 90%; Growth controlling degree (%) Japanese ribbon wapato (japanese ribbon wapato; active ingredient 125 g/ha): 60%; Growth controlling degree (%) Rice (rice (var. Nihonbare); active ingredient 125 g/ha): 0% |
| CC(C)C(c1cnccc1C(F)(F)F)N(C)S(=O)(=O)c1ccccc1Cl (racemic) [Compound I-126] | – | – | – | – | – | – | – | – | – | 80% | 30% | 70% | 30% | 50% | 10% | 20% | 0% | 0% | Growth controlling degree (%) wheat (wheat): 10% |

Reference: patent US20050239656A1, “Pyridine compounds or salts thereof and herbicides containing the same” (priority 2002, published 2005)
